# Reference: article PMC5618421, “Anti-Inflammatory Effects of Curvularin-Type Metabolites from a Marine-Derived Fungal Strain Penicillium sp. SF-5859 in Lipopolysaccharide-Induced RAW264.7 Macrophages” (Marine Drugs, 2017)
# Experiments:
# [1] = tested on: NO production in LPS-treated RAW 264.7 macrophages; test: Inhibition of NO production (nitrite, Griess reaction) in LPS-treated RAW264.7 macrophages; assay type: cell-based; conditions: for inhibitory activity on LPS-induced production of NO and PGE2 (in words): LPS-stimulated RAW264.7 macrophages; for IC50: Mus musculus, RAW264.7 macrophages pre-treated 3 h with compound, then LPS (1 μg/mL) 24 h, Griess reaction
# Method: (§1) All isolated compounds (1–9) were evaluated for their anti-inflammatory effects. […] NO is a small molecule which is an intracellular mediator produced in various immune cells. It plays a pivotal role in the physiological and pathological condition of inflammatory symptoms. PGE2 can also regulate the immune and inflammatory responses. In this study, RAW264.7 macrophages were pre-treated for 3 h in the medium containing non-toxic concentrations (Table 2) of each compound (1–9), and then LPS (1 μg/mL) was treated for 24 h. According to the LPS stimulation of RAW264.7 macrophages, production of NO and PGE2 was increased, and the effects of all compounds on the production level of NO and PGE2 were evaluated by the Griess reaction and a PGE2 kit, respectively. […] To evaluate the impact of phenol and resorcinol groups in the curvularin-type metabolites for the anti-inflammatory activity, 5-O-methyl and 5,7,-di-O-methyl derivatives of curvularin (3a and 3b, respectively), as well as 5-O-acetyl and 5,7,-di-O-acetyl derivatives of curvularin (3c and 3d, respectively), were prepared, and the structures of 3a–3d were identified by comparison the ^1H and ^13C-NMR spectroscopic data with those of curvularin (3), and confirmed by their HRESIMS. […] The position of the methoxy group in 3a was confirmed by HMBC correlation between methoxy signal at δH 3.77 (3H, s, 5-OCH3) and δC 161.8 (C-5). The NOESY cross-peaks between acetyl proton ([…]) with H-2, H-4, and H-16 of 3c were used to identify the position of the acetyl group in 3c. […] Further systematic investigations are needed to clarify the structure activity relationship associated with the modification of the aliphatic part of the molecule.
# As an indicator of NO production in RAW264.7 macrophages, production of nitrite, a stable end-product of NO oxidation, was estimated. Briefly, the concentration of nitrite in the conditioned media was determined by a method based on the Griess reaction, and the details of the assay were described previously.
# [2] = tested on: PGE2 production in LPS-treated RAW 264.7 macrophages; test: Inhibition of PGE2 production (PGE2 ELISA kit) in LPS-treated RAW264.7 macrophages; assay type: cell-based; conditions: Mus musculus, RAW264.7 macrophages pre-treated 3 h with compound, then LPS (1 μg/mL) 24 h
# Method: as §1
# RPMI1640, fetal bovine serum (FBS), and other tissue culture reagents were purchased from Gibco BRL Co. (Grand Island, NY, USA). All other chemicals were obtained from Sigma-Aldrich Co. (St. Louis, MO, USA). Primary antibodies (COX-2: sc-1745; iNOS: sc-650; IκB-α: sc-371; p-IκB-α: sc-8404; p50: sc-7178; p65: sc-8008, Santa Cruz Biotechnology, Dallas, TX, USA, p-ERK: #9101; ERK: #9102; p-JNK: #9251; JNK: #9252S; p-p38: #9211; p38: 9212S, Cell Signaling Technology, Danvers, MA, USA) and secondary antibodies (mouse: ap124p; goat: ap106p; rabbit: ap132p, Millipore, Billerica MA, USA). Enzyme-linked immunosorbent assay (ELISA) kits for PGE2 were purchased from R and D Systems, Inc. (Minneapolis, MN, USA).
# RAW264.7 macrophages = test: Cell viability (MTT) cytotoxic assay; assay type: cell-based
# Method: RAW264.7 macrophages were maintained at a density of 5 × 10^5 cells/mL in RPMI1640 medium supplemented with 10% heat-inactivated FBS, penicillin G (100 units/mL), streptomycin ([…]), and L-glutamine (2 mM), and were incubated at 37 °C in a humidified atmosphere containing 5% CO2. For determination of cell viability, cells (1 × 10^5 cells/well in 96-well plates) were incubated with 3-(4,5-dimethylthiazol-2-yl)-2,5-diphenyltetrazolium bromide (MTT) at a final concentration of 0.5 mg/mL for 3 h, and the formazan formed was dissolved in acidic 2-propanol. The optical density was measured at 540 nm with a microplate reader (BioRad, Hercules, CA, USA). The optical density of the formazan formed in control (untreated) cells was considered to represent 100% viability.
# iNOS and COX-2 = tested on: iNOS and COX-2; design: method as in PMID 18366037, PMID 12527810; conditions: human alveolar epithelial A549/8 cells; through blocking activation of STAT-1α; cited from earlier work
# [3] = tested on: pro-inflammatory cytokines and chemokines; design: method as in PMID 22767531; conditions: mice model of chronic induced arthritis; cited from earlier work
# human iNOS promotor = tested on: human iNOS promotor; design: method as in PMID 18366037; conditions: human alveolar epithelial A549/8 cells; compared with (S)-curvularin (3); cited from earlier work
# E. coli = tested on: E. coli; design: method as in PMID 26119337; conditions: growth of E. coli; cited from earlier work
IC50 [1] [µM],IC50 [2] [µM],SMILES,"Cytotoxicity (the maximum concentration not affecting cell viability) (RAW264.7 macrophages; RAW264.7 macrophages, MTT) [µM]",further results
> 80,> 80,"C[C@H]1CCC[C@@H](CC(=O)c2c(O)cc(O)cc2CC(=O)O)O1 [Compound 1, curvulone C]",>80,inhibitory activity on LPS-induced production of NO and PGE2 (in words) [1]: appeared to lose the inhibitory activity
> 80,> 80,"COC(=O)Cc1cc(O)cc(O)c1C(=O)C[C@H]1CCC[C@@H](C)O1 [Compound 2, curvulone B]",>80,inhibitory activity on LPS-induced production of NO and PGE2 (in words) [1]: appeared to lose the inhibitory activity
–,–,"CC1CCCCCC(=O)c2c(O)cc(O)cc2CC(=O)O1 (centres unmarked) [Compound 3, curvularin]",–,Cytotoxicity (the maximum concentration not affecting cell viability) (RAW264.7 macrophages; mouse): 40 µM; inducible transcription and synthesis of iNOS and COX-2 (iNOS and COX-2): inhibited inducible transcription and synthesis of iNOS and COX-2; expression of pro-inflammatory cytokines and chemokines [3]: suppressive effect
–,–,"COc1cc(O)c2c(c1)CC(=O)O[C@@H](C)CCCCCC2=O [Compound 3a, 5-O-methylcurvularin]",>80,–
60.6 ± 16.4,49.4 ± 14,"COc1cc2c(c(OC)c1)C(=O)CCCCC[C@H](C)OC(=O)C2 [Compound 3b, 5,7-Di-O-methylcurvularin]",>80,–
46.9 ± 3.7,73.7 ± 17.1,"CC(=O)Oc1cc(O)c2c(c1)CC(=O)O[C@@H](C)CCCCCC2=O [Compound 3c, 5-O-acetylcurvularin]",>80,–
77.5 ± 9.3,> 80,"CC(=O)Oc1cc2c(c(OC(C)=O)c1)C(=O)CCCCC[C@H](C)OC(=O)C2 [Compound 3d, 5,7-Di-O-acetylcurvularin]",>80,inhibitory effect on the cytokine-mediated induction of the iNOS promotor (human iNOS promotor): higher inhibitory effect
–,–,"CO[C@@H]1CCC[C@H](C)OC(=O)Cc2cc(O)cc(O)c2C(=O)C1 [Compound 6, (11R,15S)-11-methoxycurvularin]",20,–
–,–,"CO[C@H]1CCC[C@H](C)OC(=O)Cc2cc(O)cc(O)c2C(=O)C1 [Compound 7, (11S,15S)-11-methoxycurvularin]",20,–

SMILES,IC50 [1] [µM],IC50 [2] [µM],"Cytotoxicity (the maximum concentration not affecting cell viability) (RAW264.7 macrophages; RAW264.7 macrophages, MTT) [µM]",further results
"C[C@H]1CCC[C@@H](O)CC(=O)c2c(O)cc(O)cc2CC(=O)O1 [Compound 4, (11R,15S)-11-hydroxycurvularin]",11.5 ± 2.7,15.6 ± 5.2,40,antibacterial activity (E. coli): inhibiting the growth of E. coli
"C[C@H]1CCC[C@H](O)CC(=O)c2c(O)cc(O)cc2CC(=O)O1 [Compound 5, (11S,15S)-11-hydroxycurvularin]",7.2 ± 1.6,14.1 ± 4,40,antibacterial activity (E. coli): inhibiting the growth of E. coli
"C[C@H]1CCC/C=C\C(=O)c2c(O)cc(O)cc2CC(=O)O1 [Compound 9, (10Z,15S)-10,11-dehydrocurvularin]",4.4 ± 0.8,6.2 ± 1.1,20,–
